Where “and” joins values, the source holds several entries; their conditions need not be identical. Equal entries are not always repeated.
Tests used:
CT-DNA [1] = experiment: DNA cleavage by agarose gel electrophoresis in presence of H2O2; type: biochemical, calf; conditions: in the presence of H2O2, agarose gel
Description: The DNA nuclease characteristics were scrutinized of all substances along with DNA containing H2O2 and Tris-HCl buffer solution with a pH of 7.4 [19]. The gel layer was discarded from the tank solution after the experiment was finished and put in front of a UV transilluminator, and each band lane was also scrutinized with the control (DNA + H2O2).
2.1. Resources and Techniques
We purchased the essential chemical substances and other reagents from Sigma Aldrich repository. Numerous analytical and spectral measurements were utilized to describe all the test compounds, including Bruker 300 MHz 1H NMR spectrometer, or Avance III HD Nanobay 400 MHz, Shimadzu FT-IR spectrometer, Shimadzu UV-Vis 1800, Varian E112 EPR spectrometer, Bruker Daltonics ESI-MS 3000 or Bruker Compact qTOFMS coupled to an LC system and (Varian Inc, USA, 410 proStar binary LC with 500 MS, IT, and PDA detectors, or Thermo Ultimate 3000 with PDA), Bruker AXS KAPPA APEX-2 or D8 ADVANCE diffractometers (SCXRD) and other analytical techniques. The further details were encapsulated in our previous reports.
2.2. DNA/BSA interaction studies
2.2.1. […]
After the completion of the experiment, the gel layer was taken out of the tank solution and exposed to a UV transilluminator. All band lanes were evaluated and compared to the control (DNA+H2O2) using bromophenol blue, […] is useful for visually analyzing the migrated band lanes for the degree of DNA cleavage. […]
By increasing the concentration of DNA (0 –50 μM), electronic absorption titrations were performed at the fixed concentration (50 μM) of all test compounds in aqueous media at room temperature. […] Using the molar extinction coefficient (6600 M −1 cm−1) at 260 nm, it was also possible to measure the DNA concentration per nucleotide and polynucleotide, denoting that the DNA was sufficiently free of protein by the ratio of absorbance at 260 and 280 nm of roughly 1.8 –1.9 [21, 22]. When raising the concentration of DNA in compound solution, up to the point of completely binding, the decrease in absorbance intensity was carefully observed.

CT-DNA [2] = experiment: DNA binding affinity by viscometric (hydrodynamic) titration; parameters: species or system calf; conditions: for Relative Specific Viscosity (η/η0)^1/3: DNA 100 µM; for Slope of (η/η0)^1/3 vs [Compound]/[DNA]: linear plot, R 0.2–1.0
Method: The hydrodynamic titrations were carried out for all substances along with ethidium bromide (control) at 20, 40, 60, 80, 100 µM concentrations. In the Ostwald viscometer, these substances were also separately treated with the deoxyribonucleic acid solution (100 µM).
2.2.4. Viscometry-based titration for investigation of DNA binding
The Viscometry-based titration measurements were further supportive and delivered data about the binding modes between test compound and DNA base pairs. Nevertheless, it does not deliver definite confirmation for the exact mode of interactions. The experiment performed for all test compounds and ethidium bromide (control) at various concentrations 20, 40, 60, 80, 100 µM and each compound mixed with the CT-DNA solution (100 µM) in the Ostwald viscometer. With an accuracy of 0.01 seconds, a digital stopwatch was used to measure the average flow time. Due to the enhancement of the DNA's overall contour length during the separation of base pairs at intercalation sites, the classical intercalative mode […]
Generally, the compounds may result in less positive/negative or no viscosity change if they bind with DNA base pairs via […]
major or minor grooves [ 26]. […]
compounds via intercalation.

[3] = Hydroxyl radical scavenging assay; type: biochemical; conditions: 230 nm
Shigella flexneri = experiment: Agar disc diffusion antibacterial test; conditions: for diameter of clear zone inhibition / Inhibition %: E, (-) Shigella flexneri; for diameter of clear zone inhibition: 20 µL of 100 µM on 6 mm disc, Control (DMSO) = 6 mm; for Inhibition %: (T–C)/T × 100
Bacillus cereus = experiment: Agar disc diffusion antibacterial test; conditions: for diameter of clear zone inhibition / Inhibition %: G, (+) Bacillus cereus; for diameter of clear zone inhibition: 20 µL of 100 µM on 6 mm disc, Control (DMSO) = 6 mm; for Inhibition %: (T–C)/T × 100

[Cu+2].[O-]c1ccccc1N=Cc1ccc(N2CCOCC2)cc1.[O-]c1ccccc1N=Cc1ccc(N2CCOCC2)cc1.c1cnc2c(c1)ccc1cccnc12 [(1b), [Cu^II(L)2(phen)]]
DNA cleavage (chemical nuclease activity) (CT-DNA [1]): complete DNA cleavage
Relative Specific Viscosity (η/η0)^1/3 (CT-DNA [2]; R = [Complex]/[DNA] = 0.2): 0.82
Relative Specific Viscosity (η/η0)^1/3 (CT-DNA [2]; R = [Complex]/[DNA] = 0.4): 1.10
Relative Specific Viscosity (η/η0)^1/3 (CT-DNA [2]; R = [Complex]/[DNA] = 0.6): 1.25
Relative Specific Viscosity (η/η0)^1/3 (CT-DNA [2]; R = [Complex]/[DNA] = 0.8): 1.45
Relative Specific Viscosity (η/η0)^1/3 (CT-DNA [2]; R = [Complex]/[DNA] = 1.0): 1.71
Slope of (η/η0)^1/3 vs [Compound]/[DNA] (CT-DNA [2]): 1.0805
% Inhibition, hydroxyl radical ([3]; 40 µM): 09.94%
% Inhibition, hydroxyl radical ([3]; 80 µM): 18.86%
% Inhibition, hydroxyl radical ([3]; 120 µM): 32.85%
% Inhibition, hydroxyl radical ([3]; 160 µM): 39.84%
% Inhibition, hydroxyl radical ([3]; 200 µM): 51.93%
% Inhibition, hydroxyl radical ([3]; 240 µM): 62.05%
IC50 ([3]; read-out: IC50, hydroxyl radical inhibition): 200 µM
diameter of clear zone inhibition (Shigella flexneri): 17 mm
Inhibition % (Shigella flexneri): 65%
diameter of clear zone inhibition (Bacillus cereus): 10 mm
Inhibition % (Bacillus cereus): 40%

[O-]c1ccccc1N=Cc1ccc(N2CCOCC2)cc1.[O-]c1ccccc1N=Cc1ccc(N2CCOCC2)cc1.[Zn+2].c1cnc2c(c1)ccc1cccnc12 [(2b), [Zn^II(L)2(phen)]]
DNA cleavage (chemical nuclease activity) (CT-DNA [1]): partially cleaves DNA
Relative Specific Viscosity (η/η0)^1/3 (CT-DNA [2]; R = [Complex]/[DNA] = 0.2): 0.80
Relative Specific Viscosity (η/η0)^1/3 (CT-DNA [2]; R = [Complex]/[DNA] = 0.4): 0.91
Relative Specific Viscosity (η/η0)^1/3 (CT-DNA [2]; R = [Complex]/[DNA] = 0.6): 1.16
Relative Specific Viscosity (η/η0)^1/3 (CT-DNA [2]; R = [Complex]/[DNA] = 0.8): 1.21
Relative Specific Viscosity (η/η0)^1/3 (CT-DNA [2]; R = [Complex]/[DNA] = 1.0): 1.53
Slope of (η/η0)^1/3 vs [Compound]/[DNA] (CT-DNA [2]): 0.840
% Inhibition, hydroxyl radical ([3]; 40 µM): 08.33%
% Inhibition, hydroxyl radical ([3]; 80 µM): 17.12%
% Inhibition, hydroxyl radical ([3]; 120 µM): 27.05%
% Inhibition, hydroxyl radical ([3]; 160 µM): 36.68%
% Inhibition, hydroxyl radical ([3]; 200 µM): 47.03%
% Inhibition, hydroxyl radical ([3]; 240 µM): 57.83%
diameter of clear zone inhibition (Shigella flexneri): 14 mm
Inhibition % (Shigella flexneri): 57%
diameter of clear zone inhibition (Bacillus cereus): 11 mm
Inhibition % (Bacillus cereus): 45%

Oc1ccccc1N=Cc1ccc(N2CCOCC2)cc1 [(HL), 2-(4-morpholinobenzylideneamino)phenol]
DNA cleavage (chemical nuclease activity) (CT-DNA [1]): No discernible DNA cleavage
Relative Specific Viscosity (η/η0)^1/3 (CT-DNA [2]; R = [Complex]/[DNA] = 0.2): 0.61
Relative Specific Viscosity (η/η0)^1/3 (CT-DNA [2]; R = [Complex]/[DNA] = 0.4): 0.67
Relative Specific Viscosity (η/η0)^1/3 (CT-DNA [2]; R = [Complex]/[DNA] = 0.6): 0.75
Relative Specific Viscosity (η/η0)^1/3 (CT-DNA [2]; R = [Complex]/[DNA] = 0.8): 0.85
Relative Specific Viscosity (η/η0)^1/3 (CT-DNA [2]; R = [Complex]/[DNA] = 1.0): 1.01
Slope of (η/η0)^1/3 vs [Compound]/[DNA] (CT-DNA [2]): 0.462 and 0.4616
% Inhibition, hydroxyl radical ([3]; 40 µM): 07.26%
% Inhibition, hydroxyl radical ([3]; 80 µM): 14.43%
% Inhibition, hydroxyl radical ([3]; 120 µM): 25.52%
% Inhibition, hydroxyl radical ([3]; 160 µM): 33.86%
% Inhibition, hydroxyl radical ([3]; 200 µM): 40.73%
% Inhibition, hydroxyl radical ([3]; 240 µM): 50.68%
Inhibition % (Shigella flexneri): 57%
zone of inhibition at 100 µM (Shigella flexneri; Shigella flexneri, read-out: diameter of clear zone inhibition): 14 mm
zone of inhibition at 100 µM (Bacillus cereus; Bacillus cereus, read-out: diameter of clear zone inhibition): 9 mm
Inhibition % (Bacillus cereus): 33%
